Here are results for six compounds from ChEMBL document CHEMBL4825716, “Novel N-Heteroaryl Quinazolin-2-amine Derivatives as LRRK2 Inhibitors for Treating Parkinson's Disease” (ACS Med Chem Lett, 2021).

Each structure is given as a SMILES string.

The target in the assay is Leucine-rich repeat serine/threonine-protein kinase 2 (Homo sapiens, UniProt Q5S007, G2019S). The experiment in a line: Inhibition of Kinase tracer 236 binding to GST-tagged truncated human LRRK2 G2019S (970 to 2527 residues) mutant using fluorescein labeled LRRKtide peptide as substrate preincubated for 15 mins followed by substrate addition measured after 90 mins in presence of ATP at Km concentration by TR-FRET Lanthascreen assay. (In general: Time-resolved FRET reads energy transfer from a long-lived donor to a nearby acceptor.)
Chain of Leucine-rich repeat serine/threonine-protein kinase 2 (Q5S007 whole entry G2019S, the tested form may be a part): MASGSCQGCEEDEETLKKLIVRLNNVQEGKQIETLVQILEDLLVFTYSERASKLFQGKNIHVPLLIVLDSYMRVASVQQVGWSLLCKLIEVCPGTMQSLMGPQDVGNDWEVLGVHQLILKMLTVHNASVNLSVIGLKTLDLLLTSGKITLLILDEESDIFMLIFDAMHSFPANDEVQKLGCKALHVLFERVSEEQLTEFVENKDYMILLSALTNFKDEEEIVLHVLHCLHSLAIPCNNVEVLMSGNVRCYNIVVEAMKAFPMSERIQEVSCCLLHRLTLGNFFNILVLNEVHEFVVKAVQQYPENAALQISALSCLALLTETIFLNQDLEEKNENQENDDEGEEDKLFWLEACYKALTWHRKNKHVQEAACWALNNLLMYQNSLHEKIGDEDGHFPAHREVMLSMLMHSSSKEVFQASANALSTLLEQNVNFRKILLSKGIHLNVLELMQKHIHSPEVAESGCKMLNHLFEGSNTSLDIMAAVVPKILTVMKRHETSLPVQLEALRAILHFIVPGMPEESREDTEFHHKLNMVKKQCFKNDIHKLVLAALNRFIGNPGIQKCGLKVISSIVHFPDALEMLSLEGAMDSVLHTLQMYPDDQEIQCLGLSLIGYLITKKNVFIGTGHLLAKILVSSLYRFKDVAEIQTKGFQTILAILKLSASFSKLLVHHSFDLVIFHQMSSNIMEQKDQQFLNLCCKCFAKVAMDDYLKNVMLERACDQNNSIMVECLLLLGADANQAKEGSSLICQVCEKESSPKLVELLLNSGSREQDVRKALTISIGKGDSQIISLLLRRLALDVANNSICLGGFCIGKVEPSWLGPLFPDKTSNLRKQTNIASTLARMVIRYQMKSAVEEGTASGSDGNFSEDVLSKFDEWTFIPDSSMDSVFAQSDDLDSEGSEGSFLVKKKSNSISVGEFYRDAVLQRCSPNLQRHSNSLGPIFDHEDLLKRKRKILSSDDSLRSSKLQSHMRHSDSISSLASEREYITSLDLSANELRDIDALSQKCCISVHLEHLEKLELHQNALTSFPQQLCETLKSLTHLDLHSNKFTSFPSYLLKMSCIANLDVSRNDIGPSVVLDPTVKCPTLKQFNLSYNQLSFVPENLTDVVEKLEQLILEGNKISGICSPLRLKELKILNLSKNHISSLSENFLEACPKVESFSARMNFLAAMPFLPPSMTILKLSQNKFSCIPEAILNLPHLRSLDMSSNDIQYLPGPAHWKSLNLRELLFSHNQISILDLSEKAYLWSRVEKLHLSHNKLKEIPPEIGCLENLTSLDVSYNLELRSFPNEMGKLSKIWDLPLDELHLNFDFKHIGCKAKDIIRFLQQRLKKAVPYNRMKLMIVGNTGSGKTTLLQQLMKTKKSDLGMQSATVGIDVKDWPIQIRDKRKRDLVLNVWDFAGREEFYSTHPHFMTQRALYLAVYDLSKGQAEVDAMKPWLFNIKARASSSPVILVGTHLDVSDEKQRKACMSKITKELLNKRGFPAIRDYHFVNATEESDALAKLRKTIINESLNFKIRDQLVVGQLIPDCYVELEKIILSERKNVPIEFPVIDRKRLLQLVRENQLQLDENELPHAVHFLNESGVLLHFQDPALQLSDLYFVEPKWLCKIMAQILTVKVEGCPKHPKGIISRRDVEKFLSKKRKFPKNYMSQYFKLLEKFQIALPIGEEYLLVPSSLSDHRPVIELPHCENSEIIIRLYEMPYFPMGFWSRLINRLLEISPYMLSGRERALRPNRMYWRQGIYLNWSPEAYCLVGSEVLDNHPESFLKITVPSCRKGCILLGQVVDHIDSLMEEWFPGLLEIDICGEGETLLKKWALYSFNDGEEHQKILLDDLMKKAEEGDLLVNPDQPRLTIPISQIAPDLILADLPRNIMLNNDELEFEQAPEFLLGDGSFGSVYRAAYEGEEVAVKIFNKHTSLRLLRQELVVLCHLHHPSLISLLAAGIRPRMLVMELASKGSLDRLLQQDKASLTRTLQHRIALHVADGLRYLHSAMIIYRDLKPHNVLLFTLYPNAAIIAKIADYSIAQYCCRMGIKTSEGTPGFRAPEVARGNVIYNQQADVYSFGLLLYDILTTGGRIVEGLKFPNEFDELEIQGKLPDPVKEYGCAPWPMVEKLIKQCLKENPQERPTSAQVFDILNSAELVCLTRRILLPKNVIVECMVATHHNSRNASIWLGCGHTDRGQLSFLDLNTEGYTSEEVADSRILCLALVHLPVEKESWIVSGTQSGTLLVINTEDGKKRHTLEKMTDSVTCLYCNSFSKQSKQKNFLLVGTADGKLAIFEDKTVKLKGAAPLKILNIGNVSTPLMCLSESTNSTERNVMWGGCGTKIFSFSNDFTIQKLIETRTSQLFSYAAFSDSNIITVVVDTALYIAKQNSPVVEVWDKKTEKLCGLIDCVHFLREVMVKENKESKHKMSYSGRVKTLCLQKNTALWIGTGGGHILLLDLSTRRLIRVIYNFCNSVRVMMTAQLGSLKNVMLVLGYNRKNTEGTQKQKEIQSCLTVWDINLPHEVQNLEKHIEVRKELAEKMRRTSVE
Turning to `Cc1c(Nc2ncc3cc(Cl)c(C4CCN(C5COC5)[C@@H](C)C4)cc3n2)cnn1C1CC1` (stereo partly specified), the half-maximal inhibitory concentration (IC50) (usually the concentration needed to halve the response being measured) is less than 0.631 nM.

For `Cc1c(Nc2ncc3cc(Cl)c(C4CCN(C5COCC5F)CC4)cc3n2)cnn1C1CC1` (stereo unspecified), the IC50 is less than 0.631 nM.

Consider `N#CC1COCC1N1CCC(c2cc3nc(Nc4cnn(C5CC5)c4Cl)ncc3cc2Cl)CC1` (stereo unspecified), for which the IC50 is less than 0.631 nM.

`Cc1cc(Nc2ncc3cc(Cl)c(C4CCN(C5COC5)CC4)cc3n2)sn1`: the 50% inhibitory concentration (IC50) is less than 0.631 nM.

`O=S1(=O)CC(N2CCC(c3cc4nc(Nc5cnn(C6CC6)c5Cl)ncc4cc3Cl)CC2)C1`: the half-inhibitory concentration (IC50) is less than 0.631 nM.

For `Cc1c(Nc2ncc3cc(Cl)c(C4CCN(C5(C)COC5)CC4)cc3n2)cnn1C1CCOC1` (stereo unspecified), the IC50 is less than 0.631 nM.
